Assay [1] deals with HepG2. The experiment in a line: Cytotoxicity against human HepG2 cells by MTT assay. The class given is functional, cell-based.
For the next assay, the system named is MDA-MB-231. Briefly: Cytotoxicity against human MDA-MB-231 cells by MTT assay. The class given is functional, cell-based.
The test system of assay [2] is HeLa. Briefly: Cytotoxicity against human HeLa cells. The class given is functional, cell-based.
Assay [3] relates to A549. The experiment in a line: Cytotoxicity against human A549 cells. The class given is functional, cell-based.
In assay [4] the test system is HCT-116. Briefly: Cytotoxicity against human HCT116 cells. The class given is functional, cell-based.
Assay [5] relates to HeLa. The experiment in a line: Cytotoxicity against human HeLa cells by MTT assay. The format is functional, cell-based.
Assay [6] deals with MCF7. The experiment in a line: Cytotoxicity against human MCF7 cells by MTT assay. The format is functional, cell-based.
The next assay relates to A2780cisR. Briefly: Cytotoxicity against human A2780cisR cells after 72 hrs by MTT assay. The format is functional, cell-based.
Another assay concerns A2780. Briefly: Cytotoxicity against human A2780 cells after 72 hrs by MTT assay. The class given is functional, cell-based. The settings on record: A2780, 72 h.
In assay [7] the test system is HL-60. Briefly: Cytotoxicity against human HL60 cells by CCK8 assay. The class given is functional, cell-based.
Assay [8] concerns A549. The experiment in a line: Cytotoxicity against human A549 cells by CCK8 assay. The class given is functional, cell-based.
The subject of assay [9] is SMMC-7721. Briefly: Cytotoxicity against human SMMC7721 cells by CCK8 assay. The class given is functional, cell-based.
Assay [10] concerns MCF7. The experiment in a line: Cytotoxicity against human MCF7 cells by CCK8 assay. The class given is functional, cell-based.
In assay [11] the test system is SW480. Briefly: Cytotoxicity against human SW480 cells by CCK8 assay. The format is functional, cell-based.
Assay [12] concerns HL-60. Briefly: Cytotoxicity against human HL60 cells by trypan blue exclusion assay. The format is functional, cell-based.
The subject of another assay is K562. Briefly: Cytotoxicity against human K562 cells by trypan blue exclusion assay. The class given is functional, cell-based.
Assay [13] deals with HL-60. The experiment in a line: Cytotoxicity against human HL60 cells assessed as inhibition of cell growth at 40 uM by MTS assay. The class given is functional. Particulars: read-out: GI.
The test system of assay [14] is A549. The experiment in a line: Cytotoxicity against human A549 cells assessed as inhibition of cell growth at 40 uM by MTS assay. The class given is functional. Particulars: read-out: GI.
Assay [15] deals with SMMC-7721. The experiment in a line: Cytotoxicity against human SMMC7721 cells assessed as inhibition of cell growth at 40 uM by MTS assay. Particulars: read-out: GI. The class given is functional.
In assay [16] the test system is MCF7. Briefly: Cytotoxicity against human MCF7 cells assessed as inhibition of cell growth at 40 uM by MTS assay. The format is functional. The settings on record: read-out: GI.
The test system of assay [17] is SW480. The experiment in a line: Cytotoxicity against human SW480 cells assessed as inhibition of cell growth at 40 uM by MTS assay. The class given is functional. Particulars: read-out: GI.
Assay [18] relates to HL-60. The experiment in a line: Cytotoxicity against human HL60 cells after 48 hrs by MTT assay. The class given is functional, cell-based. The settings on record: HL-60, 48 h.
In assay [19] the test system is A549. The experiment in a line: Cytotoxicity against human A549 cells after 48 hrs by MTT assay. The format is functional, cell-based. The settings on record: Homo sapiens, A549, 48 h; read-out: IC50.
The test system of assay [20] is HCT-116. The experiment in a line: Cytotoxicity against human HCT116 cells after 48 hrs by MTT assay. The class given is functional, cell-based. Particulars: HCT-116, 48 h.
Assay [21] has as its system HepG2. The experiment in a line: Cytotoxicity against human HepG2 cells after 48 hrs by MTT assay. The format is functional, cell-based. Particulars: HepG2, 48 h.
In a further assay the test system is MOLT-3. Briefly: Cytotoxicity against human MOLT3 cells by XTT assay. The class given is functional, cell-based.
Assay [22] deals with HL-60. The experiment in a line: Cytotoxicity against human HL60 cells by XTT assay. The format is functional, cell-based.
A short description of assay [23]: Inhibition of TNFalpha-induced NFkappaB (unknown origin) activation expressed in HEK293 cells after 6 hrs by luciferase reporter gene based assay. The class given is cell-based. The settings on record: Homo sapiens, HEK293, 6 h.
Assay [24] deals with SW480. The experiment in a line: Cytotoxicity against human SW480 cells by MTT assay. The format is functional, cell-based.
For the next assay, the system named is Bel-7402. The experiment in a line: Cytotoxicity against human Bel7402 cells after 48 hrs by MTT assay. The format is functional, cell-based. Particulars: Bel-7402, 48 h.
Assay [25] has as its system HeLa. The experiment in a line: Cytotoxicity against human HeLa cells after 48 hrs by MTT assay. The format is functional, cell-based.
The test system of assay [26] is A549. The experiment in a line: Cytotoxicity against human A549 cells by MTT assay. The class given is functional, cell-based.
The subject of assay [27] is HCT-116. The experiment in a line: Cytotoxicity against human HCT116 cells by MTT assay. The class given is functional, cell-based.
The subject of a further assay is BT-549. The experiment in a line: Cytotoxicity against human BT549 cells after 48 hrs by neutral red dye based assay. The class given is functional, cell-based. The settings on record: BT-549, 48 h.
A further assay deals with SK-OV-3. The experiment in a line: Cytotoxicity against human SKOV3 cells after 48 hrs by neutral red dye based assay. The class given is functional, cell-based. The settings on record: SK-OV-3, 48 h.
In another assay the test system is KB. The experiment in a line: Cytotoxicity against human KB cells after 48 hrs by neutral red dye based assay. The class given is functional, cell-based.
The next assay has as its system NCI-H460. Briefly: Cytotoxicity against human NCI-H460 cells. The format is functional, cell-based.

For 17 compounds, IC50 and inhibition of growth results are on record in ChEMBL document CHEMBL4411258, “Novel natural compounds from endophytic fungi with anticancer activity” (Eur J Med Chem, 2018).

pIC50: −log10 of the molar value. ≈ marks a conversion by molar mass, not a printed value.

As for `COc1ccc2c(c1)N(CC=C(C)C)C(=O)[C@@]21C=C2C(=O)N3CCC[C@H]3C(=O)N2[C@H]1C=C(C)C`, the pIC50 is 4.85 with HepG2 [1] and 4.45 in the assay on MDA-MB-231.
Consider `COC(=O)CC[C@@H](C(=O)OC/C=C(\C)CC/C=C(\C)CCC=C(C)C)N1Cc2c(cc(O)c(OC/C=C(\C)CC/C=C(\C)CCC=C(C)C)c2O)C1=O`, for which the pIC50 was 5.32 in the assay on HeLa [2], 4.92 in the assay on A549 [3] and 4.48 with HCT-116 [4].
As to `C[C@@H]1CC[C@@]23[C@H](C)CC[C@@H](C[C@H]2[C@]2(C)CC(=O)[C@H]12)C3(C)C`, the pIC50 was 4.52 in the assay with HeLa [5] and 4.51 in the assay with MCF7 [6].
Consider `O=C1N2[C@H]3C(=CC=C[C@@H]3O)C[C@]23SS[C@]12C[C@H]1[C@@H]([C@@H](O)C=C[C@@H]1O)N2C3=O`, for which the pIC50 with A2780cisR and with A2780 was 6.18 each time.
As to `C=C1[C@@H](C)[C@H]2[C@H](Cc3ccccc3)NC(=O)[C@]23c2ccc(o2)CCC[C@@H](C)C/C=C/[C@H]3[C@@H]1O`, the pIC50 with HL-60 [7], with A549 [8], with SMMC-7721 [9], in the assay on MCF7 [10] and in the assay with SW480 [11] was 4.80 to 5.11 throughout.
With `CCCCc1c(OC)cc(=O)oc1CO`, the IC50 was 0.45 µg/mL (≈ 2.12 µM) in the assay with HL-60 [12] and 0.9 µg/mL (≈ 4.24 µM) in the assay on K562.
In the case of `C=C1[C@@H](C)[C@H]2[C@H](Cc3c[nH]c4ccccc34)NC(=O)[C@@]2(C(=O)CCC(=O)OC)[C@@H](/C=C/CC(C)/C=C(\C)C=O)[C@@H]1O` (stereo partly specified), the inhibition of growth at 40 µM in the assay with HL-60 [13] was 96%; in the assay on A549 [14], 67%; in the assay with SMMC-7721 [15], 51%; in the assay with MCF7 [16] it was 58%; in the assay on SW480 [17] it was 61%.
In the assay with HL-60 [18], `COc1ccc(O)c2c(=O)oc3cc(O)cc(C)c3c12` showed a pIC50 of 4.07.
For the compound `COc1c(OC)c2c(c(OC)c1-c1c[nH]c3ccccc13)O[C@@H]1Nc3ccccc3[C@]21OC`, the IC50 is 3.5 µg/mL (≈ 7.87 µM) in the assay with A549 [19], 6.4 µg/mL (≈ 14.4 µM) with HCT-116 [20] and 2.5 µg/mL (≈ 5.62 µM) in the assay on HepG2 [21].
On to `CC1(C)CC[C@@H](O)[C@](C)(O)[C@@]12CC=C(C=O)CC2`, for which the pIC50 with MOLT-3 is 3.78; with HL-60 [22] it was 3.80.
The compound `CCCCC[C@@H]1OC2=C(C(=O)N(OC)C2CSC[C@@H](O)C(=O)O)[C@H](O)[C@@]1(C)O` (stereo partly specified) showed a pIC50 in assay [23] of 5.15.
Turning to `CC1=C(C=O)[C@@]2(C)CCCC(C)(C)[C@@H]2C[C@@H]1O`, the pIC50 with SW480 [24] is 5.06.
Turning to `COC(=O)[C@]1(OC)CCC(=O)N1Nc1ccc(OC)cc1OC`, the pIC50 in the assay with Bel-7402 was 5.09; in the assay with HeLa [25], 4.81.
Regarding `CCCCc1c(OC)cc(=O)oc1C`, the pIC50 in the assay with A549 [26] was 4.41; in the assay with HeLa [5] it was 4.57; with HCT-116 [27] it was 4.35.
`C=C(CC[C@@H](C)[C@H]1CC=C2C3=C([C@@H](O)[C@H](OC(C)=O)[C@@]21C)[C@@]1(C)C[C@@H](O)[C@H](OC(=O)c2ccc(O)cc2)C(C)(C)[C@@H]1CC3)C(C)C`: the results for the pIC50 in the assay with BT-549, in the assay on SK-OV-3 and with KB were 5.61, 5.52 and 5.60, respectively.
In turn, `C=CC1(C)c2[nH]c3cc4c(cc3c2C[C@H]2C(=O)N3CCC[C@H]3C(=O)N21)C=CC(C)(C)O4` (stereo partly specified) gave a pIC50 in the assay on NCI-H460 of 4.16.
Turning to `C=C(CC[C@@H](C)[C@H]1CC=C2C3=C([C@@H](O)[C@H](OC(C)=O)[C@@]21C)[C@@]1(C)C[C@@H](OC(C)=O)[C@H](OC(C)=O)C(C)(C)[C@@H]1CC3)C(C)C`, the pIC50 is 5.74 in the assay with BT-549, 5.88 with SK-OV-3 and 6.74 with KB.
